Data published in patent US20070093539A1, “N-hydroxy-4-(3-pheyl-5-methyl-isoxazole-4-yl)-benzenesulfonate solvates” (priority 2003, published 2007).

Legend:
[1] = tested on: carrageenan-induced foot paw edema; assay: Carrageenan-induced rat foot paw edema assay; format: in vivo, male Wistar rats; details: for ED30 of edema inhibition: p.o.
Description: The edema was induced in male Wistar rats (140-150 g) by subcutaneous injection of carrageenan (50 μl of 1% suspension) into the right hind paw. The formed inflammation was measured with plethysmometer (Ugo Basile, type: 7150). The treated paw was placed into the plethysmometer (filled with 0.3% additives in 0.5% saline), the level of the inflammation was detected by the volume of the displaced solution. This volume was compared with the initial preinjection paw volume. Level of the inflammation (ml)=volume after CA treatment (ml)−volume before CA treatment (ml) The inflammation induced in treated group was compared to control group (which was given only vehicle). The sample materials and the solvent were dosed per os via gastro-sonde 1 hour before the CA treatment. The volume of the treated limb was measured at 3h and 5h after CA treatments. The change of the inflammation level was calculated as follows: [formula]

[2] = tested on: carrageenan induced inflammatory hyperalgesia; assay: Carrageenan induced inflammatory hyperalgesia (Randall-Selitto), acute model; format: in vivo, male SPRD rats; details: Acut model, 10 mg/kg p.o.
Description: (§1) Edema was induced by injection of Carrageenan (CA) into plantar surface of right hind paw. Male SPRD rats (weighing 140-190 g) were used n=6-8/group). Then the mechanical pain threshold of the inflamed hind paw was determined with an analgesimeter ((Ugo Basile, type: 37215).
(§2) This assay monitors the decrease of the pain threshold, and the time depending changing of the pain by mechanical pain stimulus. Analgesics can increase the pain threshold of the inflamed hinds and this effect is in terms of percentage of reversal.
(§3) Untreated right hind paw was compressed with a progressively increasing pressure. The pressure was recorded (in grams) when the animal first vocalized or made a vigorous attempt to remove the paw. It was determined to baseline threshold of the untreated paw. (average: 80-110 g). After it the animals were treated with carrageenan. After the treatment the edema and the threshold were checked in a given times. […] (Average of inflammation induced pain threshold was 20-25 g, this means 65-80% decrease related to the baseline.)
1 hour after the CA injection (100 μl of 2% solution) the animals were treated with test compounds and valdecoxib (10-10 mg/kg p.o.). […]
(§4) The chronic phase of the inflammantion and the decreasing of the threshold were induced by higher dose of CA. Inflammation induced threshold decreasing was measured 24 hours after the CA injection (150 μl of 2% solution). ) After it the animals were treated with test compounds and valdecoxib (30-30 mg/kg p.o.). Change in the threshold was checked at 1 h, 2 h, and 3 h following drug administration. In both model used control groups were treated orally only with solvents at the time of treatments. In both protocol the effects of the test compounds were calculated in percentage reversal of mechanical hiperalgesia: [formula] • T3h: In acute model, the threshold in the control group at 3 h after the CA injection (in gram) • T24h: In chronic model, the threshold in the control group at 24 h after the CA injection (in gram) • T0h: The threshold before the CA injection (in gram) • TXh In acute model, at 3h after the CA injection • TXh=In chronic model, at 25 h, 26 h, 27 h after the CA injection

[3] = tested on: inflammatory mechanical allodynia induced by carrageenan; assay: Carrageenan-induced inflammatory mechanical allodynia (von Frey); format: in vivo, male Sprague-Dawley rats; details: 30 mg/kg p.o.
Description: The-threshold of pain of the animals was measured by von Frey apparatus (IITC, type: 1601 C). […] The values were registered in the times of the pick up or raises. During each measurment the threshold was determined at least thrice and the avarage was calculated from the peak values.
Male Sprague-Dawley rats (weighing 250-300 g) were used (n=5-6/group). 100 μl of saline solution of carrageenant (CA) was injected to the middle of the paw. The stimulus threshold was measured after it, and the treatment was completed with gastro-probe per os. The effects of the materials were measured in 30, 60, 90, 120 minutes after the treatments. The effects were compared for control group treatment with vehicle (solution of 2% Tween-80).
The effect was calculated as follows: [formula] where tx=30, 60, 90, 120 min
In the acute pain model the analgesic effects of the valdecoxib and compound of example 1 were considerable with dose of 30 mg/kg p.o. once.

[4] = tested on: carrageenan and kaolin induced monoarthritis; assay: Carrageenan and kaolin induced monoarthritis model (incapacitance test); format: in vivo, rats; details: 10 mg/kg p.o.
Description: The Incapacitance tester is an apparatus for measure the changes of the functional parameters induced of the pain, which can register the bearing on the hind limb, the amount of the moving and the changing of the centre of gravity. Knee-joint of the right-back limb was treated with solution of 100 μl 2% carrageenan and kaolin. During 3-4 hours after the treatment arthritis was emerged in the capsular ligament of the treated limb. This inflammation still exists at 24 hours after the treatment. Because of the pain the animals coddles the treated limbs, thy weign on it less. Change of weight load is measurable with Incapacitance tester device in grams. The incapacitance was calculated as follows: [formula] Analgesic-antiinflammantory compounds could increase the stimulus threshold of the knee-joint, and consequently to improve the functional parameters of the limb. Measure of this can be counted by the decrease of the loading of left leg i.e. in terms of percentage of reversal. [formula] The Incapacitance induced by administration of irritants in left paw was measured at 4 hour after the injection. Afterwards the animals (n=24-32/group) were. orally treated with dose of 10 mg/kg valdecoxib and test compounds. Measurements were done at 1 and 2 hours after the treatments.

isolated rabbit heart = assay: Cardiac effects on the isolated rabbit heart (Langendorff, coronary flow); parameters: species or system New Zealand white rabbits; details: 1, 3 and 10 μM, 4-4 hearts
Description: New Zealand white rabbits weighing 1.5-2 kg were used. The animals were exsanguinated and after thoracotomy the hearts were excised and mounted on a Langendorff-type perfusion apparatus. The hearts were perfused via the aorta with oxigenated, thermostated (37° C.) Krebs solution. A constant perfusion pressure of 80 cmH2O was applied. The test compounds were dissolved in the perfusion solution to obtain the requested concentrations.
The basic value of coronary flow was determined. Afterwards the small amount of compounds were added to perfusion liquid and the perfusion was measured for 30 minutes at every 10 minutes. Afterwards 30 minutes perfusion was performed without compound and the measure was repeated with the medium and high amount of compounds.
The effects of same concentration of valdecoxib and compound of example 1 were investigated in 4-4 hearts (1, 3 and 10 μM). Valdecoxib had no effect in either concentration. It can clearly be shown that the coronary flow was increased dose dependently. This effect is advantageous in practice of clinical therapy, because the painful arthritic and degenerative joint and bone deformations are emerged rather in old age, when diseases of the vascular system are also frequently encountered, which can conduce to disorder of vascular bed of the heart.

[5] = tested on: carrageenan induced inflammatory hyperalgesia; assay: Carrageenan induced inflammatory hyperalgesia (Randall-Selitto), chronic model; format: in vivo, male SPRD rats; details: 30 mg/kg p.o.
Description: as §1, §2, §3, §4

Cc1onc(-c2ccccc2)c1-c1ccc(S(N)(=O)=O)cc1 [valdecoxib, reference compound]
edema inhibition effect % ([1]; 0.1 mg/kg p.o., 4 hours after treatment): 29.4% | edema inhibition effect % ([1]; 0.1 mg/kg p.o., 6 hours after treatment): 25.8% | edema inhibition effect % ([1]; 0.3 mg/kg p.o., 4 hours after treatment): 34.1% | edema inhibition effect % ([1]; 0.3 mg/kg p.o., 6 hours after treatment): 27.3% | edema inhibition effect % ([1]; 1.0 mg/kg p.o., 4 hours after treatment): 40.1% | edema inhibition effect % ([1]; 1.0 mg/kg p.o., 6 hours after treatment): 37.8% | edema inhibition effect % ([1]; 3.0 mg/kg p.o., 4 hours after treatment): 47.7% | edema inhibition effect % ([1]; 3.0 mg/kg p.o., 6 hours after treatment): 45.8% | ED30 of edema inhibition ([1]; 4 hours after treatment): 0.2 mg/kg | ED30 of edema inhibition ([1]; 6 hours after treatment): 0.3 mg/kg | Analgesic effect in % after p.o. treatment ([2]; 2 hours): 50.5% | Analgesic effect in % after p.o. treatment ([2]; 3 hours): 59.9% | Analgesic effect in % after p.o. treatment ([2]; 4 hours): 33.2% | Analgesic effect in % after p.o. treatment ([3]; 30 min.): 69.2% | Analgesic effect in % after p.o. treatment ([3]; 1 hour): 60.0% | Analgesic effect in % after p.o. treatment ([3]; 1.5 hour): 57.7% | Analgesic effect in % after p.o. treatment ([3]; 2 hours): 47.8% | Analgesic effect (% reversal) after p.o. treatment ([4]; 1 hour): 52.1 % reversal | Analgesic effect (% reversal) after p.o. treatment ([4]; 2 hours): 62.4 % reversal | effect on coronary flow (in words) (isolated rabbit heart): no effect | Analgesic effect in % after p.o. treatment ([5]; 1 hour): 24.2% | Analgesic effect in % after p.o. treatment ([5]; 2 hours): 36.9% | Analgesic effect in % after p.o. treatment ([5]; 3 hours): 19.9%
